For test [1], the system named is P. aeruginosa strain PAO1. The conditions noted are these: 20 mM Tris–HCl, pH 7.2, 1 h, 37°C, log-phase bacteria ~10^5–10^6 CFU/ml, limit of detection 10 CFU/ml, triplicate experiments.
The test system of test [2] is S. aureus strain NRS384 (MRSA). Put plainly: Murine burn wound infection model, prophylactic. The test is classed as in vivo, Staphylococcus aureus. Conditions: monotherapy: 1% (wt/vol) PaP1, or 0.02% or 0.2% (wt/vol) mupirocin, topical in diH2O, 1 h before and 2 h after infection with 10^6 CFU; female CD1 mice, third-degree burns; counts 3 h post-infection; control ~10^6 CFU/g tissue; geometric mean.

Where [3] appears, read: peptide 10 μg/ml, serial dilution and plating.

Like-named read-outs stand apart in the source and are kept apart here.

On to “NAGDYAGAAEQFLRWNKAGGKVLPGLVRRRA [PaP1-2]”, for which the “reduction of bacterial viability (log10-fold kill)” value (“reduction … (log10-fold kill)” for short) in test [1] (setting [3]) is on record as 1.2 log10-fold.
As for “NAGDYAGAAEQFLRWNKAGGKVLPGLVRRRK [PaP1-3]”, the “reduction … (log10-fold kill)” value is recorded as 2.4 log10-fold in test [1] (peptide 5 μg/ml, plating) and “below the limit of detection” in test [1] (setting [3]).
Turning to “NAGDYAGAAEQFLRWNKAGGKVLPGLVRRRASERELFLGAA [PaP1-1]”, the “reduction … (log10-fold kill)” value is “ineffective” in test [1] (peptide 5 μg/ml, plating) and “ineffective” in test [1] (setting [3]).
Regarding “QYCANDRVGNLWVEAQEGRKPLRSSAKFKGGAQRRSGLA [PaP1-6]”, in test [1] (setting [3]), the “reduction … (log10-fold kill)” value is on record as “retains bactericidal activity”.
Take `C/C(=C\C(=O)OCCCCCCCCC(=O)O)C[C@@H]1OC[C@H](C[C@@H]2O[C@H]2[C@@H](C)[C@H](C)O)[C@@H](O)[C@H]1O` [mupirocin]: the “reduction of MRSA viability vs untreated control” value in test [2] is 1.1–1.2 log10-fold.

These data come from PMC8965563, “PaP1, a Broad-Spectrum Lysin-Derived Cationic Peptide to Treat Polymicrobial Skin Infections” (Frontiers in Microbiology, 2022).
